Structures are written as SMILES.

Consider 12 molecules from patent US20260221482A1, “REDOX FLOW BATTERY” (CAMBRIDGE ENTERPRISE LIMITED, priority 2023, published 2026).

What all share (format): physicochemical
The nature of series [1]: EPR and CV modelling studies of redox equilibria (comproportionation, π-dimerisation). The note with it: for Kc from CV: comproportionation equilibrium constant from CV curve fitting; for Kd: equilibrium constant of π-dimerisation of singly reduced form, estimated at 50% SOC; for Kc, obs from EPR: observed comproportionation equilibrium constant, fit of spin counting radical fraction. The procedure: An analysis of compounds 10, 11, and 13 associated redox equilibria was carried out. Expressing the two single electron reductions as a comproportionation equilibrium with an equilibrium constant of comproportionation, Kc, an equation for radical fraction as a function of battery SOC was obtained.
The difference between redox events is related to the comproportionation equilibrium constant Kc by:
For the compounds comproportionation equilibrium:
fits to experimental radical concentration data were obtained by:
Where n is the number of electrons that have been removed from the system, starting from 100% SOC and x is the fraction of radicals.
For π-dimerisation equilibria, Kd values were estimated as follows. At 50% SOC, 1 electron equivalent of the starting concentration of viologen, V0, has been added to create reduced species, thus giving the previous result:
As the initial concentration (V0), Kc and the radical concentration (V^3+·) at this state of charge is known, the dimerisation constant can be calculated with:
This equation was used to fit experimental radical fraction data obtained by the EPR-based method of spin counting, from which the observed comproportionation equilibrium constant Kc,obs was extracted. Upon fitting, Kc,obs values of 0.75, 0.021 and 0.0021 were found for 10, 11, and 13, respectively (Table 2).
The equation was also used for CV curve fitting, from which much better agreement with experimental data was obtained. Relating the difference in first and second redox events obtained by CV curve fitting to Kc, ‘true’ Kc values could be estimated and compared to Kc,obs values. Respective Ko values for 10, 11, and 13 were 3.2×10^5, 1.3 and 2.9 (see Table 2)—substantially higher than the Kc,obs values. […] The strongest candidates for these are dimerisation equilibria.

A short description of series [2]: In situ DOSY NMR of flowing electrolyte at various SOCs. Particulars: diffusivity. Here is the method: Pseudo-2D NMR experiments were performed on the flowing electrolyte solution by direct excitation with a 90° radiofrequency pulse. Each NMR spectrum is acquired by collecting eight free induction decays with a recycle delay of 15 s. The pulse width for a 90° pulse was 27 μs at 30 W. All spectra were referenced to the water chemical shift at 4.79 ppm. NMR data were processed using TopSpin 3.6.3 (Bruker). EPR data were processed using EasySpin version 5.2.30. Electrochemical data were processed using EC-lab 11.36 (BioLogic).
The flow was stopped during the acquisition period (12 min) to carry out the DOSY NMR.
In situ DOSY NMR experiments carried out for 10, 11, and 13 at 0%, 50%, and 100% SOC (Table 1).

The nature of series [3]: Cyclic voltammetry in N2 purged 0.1 M NaCl aqueous solutions. Particulars: 1 mM. The procedure:
Cyclic voltammetry experiments were carried out at 25° C. in N2 purged 0.1 M NaCl aqueous solutions with a Metrohm Eco Chemie Autolab PGSTAT12 potentiostat, working on GPES 4.9 software. A three-electrode configuration was used with a 3 mm or 1.6 mm glassy carbon working electrode, a platinum counter electrode, and RE-5B Ag/AgCl BASI reference electrode. The glassy carbon electrode was polished before each measurement using a 0.05 μm alumina-H2O slurry on a polishing cloth. CV was performed at 1 mM concentrations of the respective compound using a scan rate of 20 mV s^−1.

Series [4] is described as follows: Rates of electron transfer.
Series [5] can be described thus: Additional cyclic voltammetry under nitrogen and under air. Particulars: 1 mM, 0.1 M NaCl. Here is the method:
Cyclic voltammetry experiments were carried out for aqueous solutions of compound 20 and 10 at 25° C. and a concentration of 1 mM in 0.1 M NaCl with a Metrohm Eco Chemie Autolab PGSTAT12 potentiostat, working on GPES 4.9 software. Where the CV was carried out under nitrogen the solution was purged with nitrogen. A three-electrode configuration was used with a 3 mm glassy carbon working electrode, a platinum counter electrode, and RE-5B Ag/AgCl BASI reference electrode. The glassy carbon electrode was polished before each measurement using a 0.05 μm alumina-H2O slurry on a polishing cloth. CV was performed using a scan rate of 20 mV s^−1.

Turning to `C[N+](C)(C)CCC[n+]1ccc(-c2cc[n+](CCC[N+](C)(C)C)cc2)cc1` [Compound 10], in series [1], the “average Kc extracted from the radical concentration” value (from here on “average Kc extracted”) was 0.7; the “Kc from CV” value is 3.2×10^5; the Kd is 0.28 mM⁻¹; the “Kc, obs from EPR” value is recorded as 0.75. For the same molecule, in series [2], the “D at 0% SOC” value is recorded as 3.6 ± 0.1 ×10^−10 m^2 s^−1, the “D at 50% SOC” value is 3.6 ± 0.2 ×10^−10 m^2 s^−1 and the “D at 100% SOC” value is given as 3.4 ± 0.1 ×10^−10 m^2 s^−1. Also, in series [3], the “redox reversibility by cyclic voltammetry” value (shortened to “redox reversibility”) is listed as “reversible redox processes”. Moreover, in series [3] (vs SHE, 25° C., 20 mV s^−1), the “reversible potential, first reduction” value was −0.35 V and the “reversible potential, second reduction” value was −0.68 V.

Regarding `C[N+](C)(C)CCC[n+]1ccc(-c2ccc(-c3cc[n+](CCC[N+](C)(C)C)cc3)cc2)cc1` [Compound 11], in series [1], the “average Kc extracted” value turned out to be 0.2; the “Kc from CV” value was determined as 1.3; the Kd is 11 mM⁻¹; the “Kc, obs from EPR” value was 0.021. For the same molecule, in series [2], the “D at 0% SOC” value was 3.1 ± 0.1 ×10^−10 m^2 s^−1, the “D at 50% SOC” value is reported as 2.4 ± 0.2 ×10^−10 m^2 s^−1 and the “D at 100% SOC” value is recorded as 1.6 ± 0.1 ×10^−10 m^2 s^−1. In addition, the “rate of electron transfer k0” value in series [4] came out at 0.0198 cm/s. In series [3], the “redox reversibility” value is on record as “reversible redox processes”.

For the molecule `C[N+](C)(C)CCC[n+]1ccc(-c2ccc(-c3cc[n+](CCC[N+](C)(C)C)cc3)c3ccccc23)cc1` [Compound 12], in series [3], the “redox reversibility” value is “reversible redox processes”.

On to `C[N+](C)(C)CCC[n+]1ccc(-c2ccc3cc(-c4cc[n+](CCC[N+](C)(C)C)cc4)ccc3c2)cc1` [Compound 13], for which, in series [1], the “average Kc extracted” value worked out at 0.002; the “Kc from CV” value stood at 2.9; the Kd was 76 mM⁻¹; the “Kc, obs from EPR” value stood at 0.0021. For the same molecule, in series [2], the “D at 0% SOC” value is on record as 2.8 ± 0.1 ×10^−10 m^2 s^−1, the “D at 50% SOC” value is listed as 1.9 ± 0.2 ×10^−10 m^2 s^−1 and the “D at 100% SOC” value was 2.1 ± 0.5 ×10^−10 m^2 s^−1. Besides, the “redox reversibility” value in series [3] is given as “reversible redox processes”.

Take `C[N+](C)(C)CCC[n+]1ccc(-c2ccc3ccc(-c4cc[n+](CCC[N+](C)(C)C)cc4)cc3c2)cc1` [Compound 14]: in series [3], the “redox reversibility” value is “does not have a reversible potential”.

As for `C[N+](C)(C)CCC[n+]1ccc(-c2c3ccccc3c(-c3cc[n+](CCC[N+](C)(C)C)cc3)c3ccccc23)cc1` [Compound 15], the “redox reversibility” value in series [3] is “electrochemically irreversible”.

Turning to `C[N+](C)(C)CCC[n+]1ccc(-c2ccc(-c3ccc(-c4cc[n+](CCC[N+](C)(C)C)cc4)cc3)cc2)cc1` [Compound 16], in series [3], the “redox reversibility” value is “electrochemically irreversible”.

For `C[N+](C)(C)CCC[n+]1ccc(-c2ccc(-c3cc[n+](CCC[N+](C)(C)C)cc3)s2)cc1` [Compound 17], the “rate of electron transfer k0” value in series [4] was 0.0028 cm/s. Further, the “redox reversibility” value in series [3] is on record as “reversible redox processes”. Besides, the “reversible potential, second reduction” value in series [3] (vs SHE, 25° C., 20 mV s^−1) is given as −0.67 V.

Take `C[N+](C)(C)CCC[n+]1ccc(-c2ccc(-c3ccc(-c4cc[n+](CCC[N+](C)(C)C)cc4)s3)s2)cc1` [Compound 18]: the “redox reversibility” value in series [3] is listed as “reversible redox processes”.

As to `C[N+](C)(C)CCC[n+]1ccc(-c2cccc(-c3cc[n+](CCC[N+](C)(C)C)cc3)n2)cc1` [Compound 19], the “redox reversibility” value in series [3] is “does not have a reversible potential”.

Take `C[N+](C)(C)c1ccc(-[n+]2ccc(-c3cc[n+](-c4ccc([N+](C)(C)C)cc4)cc3)cc2)cc1` [Compound 20]: the “tolerance to oxygen (voltammogram under nitrogen vs under air)” value in series [5] is “highly tolerant to the presence of oxygen”. Moreover, in series [5] (vs SHE, 25° C., 20 mV s^−1), the “reversible reduction potential, first” value is −0.147 V and the “reversible reduction potential, second” value is reported as −0.386 V.

Regarding `O=O` [Compound O2, dioxygen], the “rate of electron transfer k0” value in series [4] is 0.00084 cm/s.
